According to patent US9636418B2 (priority 2013, dated 2017):
pIC50: −log10 of the molar value. Read-outs that look alike come from different tables or passages of the source.

Experiments:
Test in all cases: cell-based
hNav1.4 = hNav1.4 (Homo sapiens, UniProt P35499); settings: for pIC50: PatchXpress, read-out: PX hNav1.4 Tonic IC50
hNav1.7 = hNav1.7 (Homo sapiens, UniProt Q15858); type: cell-based; settings: PatchXpress, read-out: PX hNav1.7 Tonic IC50
hNav1.5 = hNav1.5 (Homo sapiens, UniProt Q14524); settings: for pIC50: PatchXpress, read-out: PX hNav1.5 Tonic IC50
Sequence of hNav1.5 (Q14524 whole entry): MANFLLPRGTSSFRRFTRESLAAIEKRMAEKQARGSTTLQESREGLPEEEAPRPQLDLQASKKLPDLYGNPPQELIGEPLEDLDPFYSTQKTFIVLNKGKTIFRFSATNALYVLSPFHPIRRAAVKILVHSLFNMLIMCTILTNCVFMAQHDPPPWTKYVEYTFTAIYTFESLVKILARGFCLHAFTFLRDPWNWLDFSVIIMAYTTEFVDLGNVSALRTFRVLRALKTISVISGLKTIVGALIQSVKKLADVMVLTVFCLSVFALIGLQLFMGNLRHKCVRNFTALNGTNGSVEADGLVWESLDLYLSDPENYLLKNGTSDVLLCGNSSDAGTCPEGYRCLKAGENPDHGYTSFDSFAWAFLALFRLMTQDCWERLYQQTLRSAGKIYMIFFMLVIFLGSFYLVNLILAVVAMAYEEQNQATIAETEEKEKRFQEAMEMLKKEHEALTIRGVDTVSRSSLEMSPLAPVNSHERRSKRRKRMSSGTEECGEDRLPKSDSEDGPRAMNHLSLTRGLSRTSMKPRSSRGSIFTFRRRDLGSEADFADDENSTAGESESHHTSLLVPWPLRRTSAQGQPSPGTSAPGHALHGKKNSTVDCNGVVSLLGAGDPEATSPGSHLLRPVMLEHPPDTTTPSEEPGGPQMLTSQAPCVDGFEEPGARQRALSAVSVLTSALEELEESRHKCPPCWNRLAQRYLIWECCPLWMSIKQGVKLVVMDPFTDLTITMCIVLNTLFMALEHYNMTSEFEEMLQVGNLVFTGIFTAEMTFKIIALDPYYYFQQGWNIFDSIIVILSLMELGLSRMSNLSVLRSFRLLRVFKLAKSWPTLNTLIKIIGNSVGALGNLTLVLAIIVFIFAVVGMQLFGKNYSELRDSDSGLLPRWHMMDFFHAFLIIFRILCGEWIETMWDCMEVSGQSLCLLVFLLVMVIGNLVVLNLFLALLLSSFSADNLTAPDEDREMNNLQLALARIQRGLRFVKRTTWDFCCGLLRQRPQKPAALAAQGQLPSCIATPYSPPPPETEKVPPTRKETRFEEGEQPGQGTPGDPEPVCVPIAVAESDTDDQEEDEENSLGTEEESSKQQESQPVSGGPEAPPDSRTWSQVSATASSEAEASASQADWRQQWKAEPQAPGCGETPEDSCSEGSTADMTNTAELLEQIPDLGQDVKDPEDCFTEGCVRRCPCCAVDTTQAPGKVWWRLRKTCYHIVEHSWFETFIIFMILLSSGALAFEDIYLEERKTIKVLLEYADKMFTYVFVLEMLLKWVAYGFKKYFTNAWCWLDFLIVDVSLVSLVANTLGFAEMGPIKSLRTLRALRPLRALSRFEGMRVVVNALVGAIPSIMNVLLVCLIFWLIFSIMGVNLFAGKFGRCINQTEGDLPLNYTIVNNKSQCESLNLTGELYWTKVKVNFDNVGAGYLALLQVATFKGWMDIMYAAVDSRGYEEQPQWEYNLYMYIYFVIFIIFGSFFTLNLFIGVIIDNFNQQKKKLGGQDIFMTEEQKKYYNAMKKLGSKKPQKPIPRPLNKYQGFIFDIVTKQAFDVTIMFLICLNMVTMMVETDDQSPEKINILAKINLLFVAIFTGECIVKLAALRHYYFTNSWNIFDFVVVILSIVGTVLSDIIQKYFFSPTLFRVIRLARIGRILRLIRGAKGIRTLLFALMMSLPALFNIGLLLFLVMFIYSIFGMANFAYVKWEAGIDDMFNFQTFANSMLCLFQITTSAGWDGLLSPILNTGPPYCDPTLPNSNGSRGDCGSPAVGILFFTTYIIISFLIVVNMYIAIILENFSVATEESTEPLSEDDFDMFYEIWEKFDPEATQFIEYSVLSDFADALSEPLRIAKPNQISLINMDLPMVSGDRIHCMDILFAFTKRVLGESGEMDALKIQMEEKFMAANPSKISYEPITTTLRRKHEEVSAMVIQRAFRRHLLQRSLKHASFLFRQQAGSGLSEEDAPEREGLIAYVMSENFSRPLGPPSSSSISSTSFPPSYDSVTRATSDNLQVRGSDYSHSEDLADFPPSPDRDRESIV

[1] = * = at high concentrations compound would wash off slowly or not at all

Sequence of hNav1.7 (Q15858 whole entry): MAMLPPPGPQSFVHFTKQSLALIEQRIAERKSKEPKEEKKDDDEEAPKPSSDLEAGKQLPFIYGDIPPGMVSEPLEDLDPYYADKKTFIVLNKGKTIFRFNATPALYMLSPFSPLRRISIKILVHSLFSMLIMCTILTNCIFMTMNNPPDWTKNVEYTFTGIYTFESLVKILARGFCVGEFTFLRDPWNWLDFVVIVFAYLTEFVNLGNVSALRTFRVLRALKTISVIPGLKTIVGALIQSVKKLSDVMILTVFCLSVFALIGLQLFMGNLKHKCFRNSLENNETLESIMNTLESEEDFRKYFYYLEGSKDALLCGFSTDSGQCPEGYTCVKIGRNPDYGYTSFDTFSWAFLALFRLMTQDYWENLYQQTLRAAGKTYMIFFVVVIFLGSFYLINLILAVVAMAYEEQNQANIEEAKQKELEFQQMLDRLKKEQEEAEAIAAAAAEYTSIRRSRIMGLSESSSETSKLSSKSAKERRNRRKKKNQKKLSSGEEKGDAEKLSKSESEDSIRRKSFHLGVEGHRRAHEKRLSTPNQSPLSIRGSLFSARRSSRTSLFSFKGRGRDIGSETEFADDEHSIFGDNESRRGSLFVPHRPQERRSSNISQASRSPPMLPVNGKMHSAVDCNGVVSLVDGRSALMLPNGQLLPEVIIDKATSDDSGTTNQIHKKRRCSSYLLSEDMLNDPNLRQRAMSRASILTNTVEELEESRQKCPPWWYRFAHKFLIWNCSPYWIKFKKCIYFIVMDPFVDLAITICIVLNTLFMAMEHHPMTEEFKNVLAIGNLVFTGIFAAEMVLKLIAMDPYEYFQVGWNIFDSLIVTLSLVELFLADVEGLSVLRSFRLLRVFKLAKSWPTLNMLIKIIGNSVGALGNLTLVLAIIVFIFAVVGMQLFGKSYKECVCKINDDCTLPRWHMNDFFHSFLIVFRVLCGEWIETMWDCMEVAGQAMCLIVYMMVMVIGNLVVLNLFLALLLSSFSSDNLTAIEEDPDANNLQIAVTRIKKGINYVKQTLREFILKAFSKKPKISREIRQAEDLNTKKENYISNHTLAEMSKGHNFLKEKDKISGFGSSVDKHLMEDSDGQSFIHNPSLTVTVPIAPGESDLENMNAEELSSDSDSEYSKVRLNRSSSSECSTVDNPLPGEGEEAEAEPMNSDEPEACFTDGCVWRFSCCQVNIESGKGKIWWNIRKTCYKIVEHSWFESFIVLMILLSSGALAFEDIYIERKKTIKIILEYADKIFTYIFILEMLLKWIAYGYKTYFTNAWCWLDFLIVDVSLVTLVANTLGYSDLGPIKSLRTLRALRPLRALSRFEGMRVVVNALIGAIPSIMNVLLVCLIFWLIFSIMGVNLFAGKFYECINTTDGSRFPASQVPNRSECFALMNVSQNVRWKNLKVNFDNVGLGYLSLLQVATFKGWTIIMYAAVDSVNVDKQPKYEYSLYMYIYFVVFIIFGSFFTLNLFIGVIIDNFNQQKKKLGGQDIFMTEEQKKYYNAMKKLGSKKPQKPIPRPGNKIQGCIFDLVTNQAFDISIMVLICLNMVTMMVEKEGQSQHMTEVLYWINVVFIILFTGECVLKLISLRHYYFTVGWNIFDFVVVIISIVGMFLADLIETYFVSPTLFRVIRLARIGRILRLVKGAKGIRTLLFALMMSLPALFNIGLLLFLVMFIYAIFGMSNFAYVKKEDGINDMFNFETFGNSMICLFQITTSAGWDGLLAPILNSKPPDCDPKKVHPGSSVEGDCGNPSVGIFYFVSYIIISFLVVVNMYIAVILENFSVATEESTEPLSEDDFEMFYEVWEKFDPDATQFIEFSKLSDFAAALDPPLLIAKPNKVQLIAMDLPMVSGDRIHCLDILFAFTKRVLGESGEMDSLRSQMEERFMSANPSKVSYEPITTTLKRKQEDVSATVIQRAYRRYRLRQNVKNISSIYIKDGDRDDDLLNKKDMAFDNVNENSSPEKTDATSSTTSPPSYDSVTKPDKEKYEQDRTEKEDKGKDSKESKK

Row | SMILES | pIC50 (hNav1.4; [1]) | Nav1.4/Nav1.7 (hNav1.4; ratio of PX IC50 values) | pIC50 (hNav1.7; [1]) | pIC50 (hNav1.5; [1]) | Nav1.4/Nav1.7 (hNav1.4; ratio of PX tonic IC50 values) | pIC50 (hNav1.7; tonic block) | Nav1.5/Nav1.7 (hNav1.5; ratio of PX tonic IC50 values) | pIC50 (hNav1.4; tonic block) | pIC50 (hNav1.5; tonic block)
1 | CCCC[C@@H]1NC(=O)[C@H](Cc2c[nH]c3ccccc23)NC(=O)[C@H](CCCCN)NC(=O)[C@H](CCC(N)=O)NC(=O)[C@@H](NC(=O)[C@H](Cc2ccc(O)cc2)NC(=O)[C@@H](C)N)CSSC[C@@H]2NC(=O)[C@@H]3CSSC[C@@H](C(=O)N[C@@H](CCCNC(=N)N)C(=O)N[C@@H](CCCCN)C(=O)N[C@H](C(=O)N[C@H](C(N)=O)[C@@H](C)CC)[C@@H](C)CC)NC(=O)[C@H](Cc4c[nH]c5ccccc45)NC(=O)[C@H](CC(C)C)NC(=O)[C@H](CCCCN)NC(=O)[C@H](CSSC[C@H](NC(=O)[C@H]([C@@H](C)O)NC(=O)[C@H](Cc4c[nH]c5ccccc45)NC1=O)C(=O)N[C@@H](CC(=O)O)C(=O)N[C@@H](CO)C(=O)N[C@@H](CCCCN)C(=O)N[C@@H](CCCNC(=N)N)C(=O)N[C@@H](C)C(=O)N3)NC(=O)[C@H](CCCNC(=N)N)NC(=O)[C@H](CC(C)C)NC(=O)CNC(=O)[C@H](CCC(=O)O)NC2=O [compound 372] | 8.29 | 5 | 9.02 | 6.14 |  |  |  |  | 
2 | CCCC[C@@H]1NC(=O)[C@H](Cc2c[nH]c3ccccc23)NC(=O)[C@H](CCCCN)NC(=O)[C@H](CCC(N)=O)NC(=O)[C@@H](NC(=O)[C@H](Cc2ccc(O)cc2)NC(=O)[C@H](N)Cc2ccccc2)CSSC[C@@H]2NC(=O)[C@@H]3CSSC[C@@H](C(=O)N[C@@H](CCCNC(=N)N)C(=O)N[C@@H](CCCCN)C(=O)N[C@H](C(=O)N[C@H](C(N)=O)[C@@H](C)CC)[C@@H](C)CC)NC(=O)[C@H](Cc4c[nH]c5ccccc45)NC(=O)[C@H](CC(C)C)NC(=O)[C@H](CCCCN)NC(=O)[C@H](CSSC[C@H](NC(=O)[C@H]([C@@H](C)O)NC(=O)[C@H](Cc4c[nH]c5ccccc45)NC1=O)C(=O)N[C@@H](CC(=O)O)C(=O)N[C@@H](CO)C(=O)N[C@@H](CCCCN)C(=O)N[C@@H](CCCNC(=N)N)C(=O)N[C@@H](C)C(=O)N3)NC(=O)[C@H](CCCNC(=N)N)NC(=O)[C@H](CC(C)C)NC(=O)CNC(=O)[C@H](CCC(=O)O)NC2=O [compound 374] | 8.17 | 19 | 9.45 | 6.21 |  |  |  |  | 
3 | CCCC[C@@H]1NC(=O)[C@H](Cc2c[nH]c3ccccc23)NC(=O)[C@H](CCCCN)NC(=O)[C@H](CCC(N)=O)NC(=O)[C@@H](NC(=O)[C@H](Cc2ccc(O)cc2)NC(=O)CCN)CSSC[C@@H]2NC(=O)[C@@H]3CSSC[C@@H](C(=O)N[C@@H](CCCNC(=N)N)C(=O)N[C@@H](CCCCN)C(=O)N[C@H](C(=O)N[C@H](C(N)=O)[C@@H](C)CC)[C@@H](C)CC)NC(=O)[C@H](Cc4c[nH]c5ccccc45)NC(=O)[C@H](CC(C)C)NC(=O)[C@H](CCCCN)NC(=O)[C@H](CSSC[C@H](NC(=O)[C@H]([C@@H](C)O)NC(=O)[C@H](Cc4c[nH]c5ccccc45)NC1=O)C(=O)N[C@@H](CC(=O)O)C(=O)N[C@@H](CO)C(=O)N[C@@H](CCCCN)C(=O)N[C@@H](CCCNC(=N)N)C(=O)N[C@@H](C)C(=O)N3)NC(=O)[C@H](CCCNC(=N)N)NC(=O)[C@H](CC(C)C)NC(=O)CNC(=O)[C@H](CCC(=O)O)NC2=O [compound 376] | 8.49 | 3 | 9.02 | 6.15 |  |  |  |  | 
4 | CCCC[C@@H]1NC(=O)[C@H](Cc2c[nH]c3ccccc23)NC(=O)[C@H](CCCCN)NC(=O)[C@H](CCC(N)=O)NC(=O)[C@@H](NC(=O)[C@H](Cc2ccc(O)cc2)NC(=O)[C@@H](N)CCC(C)C)CSSC[C@@H]2NC(=O)[C@@H]3CSSC[C@@H](C(=O)N[C@@H](CCCNC(=N)N)C(=O)N[C@@H](CCCCN)C(=O)N[C@H](C(=O)N[C@H](C(N)=O)[C@@H](C)CC)[C@@H](C)CC)NC(=O)[C@H](Cc4c[nH]c5ccccc45)NC(=O)[C@H](CC(C)C)NC(=O)[C@H](CCCCN)NC(=O)[C@H](CSSC[C@H](NC(=O)[C@H]([C@@H](C)O)NC(=O)[C@H](Cc4c[nH]c5ccccc45)NC1=O)C(=O)N[C@@H](CC(=O)O)C(=O)N[C@@H](CO)C(=O)N[C@@H](CCCCN)C(=O)N[C@@H](CCCNC(=N)N)C(=O)N[C@@H](C)C(=O)N3)NC(=O)[C@H](CCCNC(=N)N)NC(=O)[C@H](CC(C)C)NC(=O)CNC(=O)[C@H](CCC(=O)O)NC2=O [compound 377] | 8.07 | 13 | 9.17 | 6.38 |  |  |  |  | 
5 | CCCC[C@@H]1NC(=O)[C@H](Cc2c[nH]c3ccccc23)NC(=O)[C@H](CCCCN)NC(=O)[C@H](CCC(N)=O)NC(=O)[C@@H](NC(=O)[C@H](Cc2ccc(O)cc2)NC(=O)[C@@H](N)CCc2ccccc2)CSSC[C@@H]2NC(=O)[C@@H]3CSSC[C@@H](C(=O)N[C@@H](CCCNC(=N)N)C(=O)N[C@@H](CCCCN)C(=O)N[C@H](C(=O)N[C@H](C(N)=O)[C@@H](C)CC)[C@@H](C)CC)NC(=O)[C@H](Cc4c[nH]c5ccccc45)NC(=O)[C@H](CC(C)C)NC(=O)[C@H](CCCCN)NC(=O)[C@H](CSSC[C@H](NC(=O)[C@H]([C@@H](C)O)NC(=O)[C@H](Cc4c[nH]c5ccccc45)NC1=O)C(=O)N[C@@H](CC(=O)O)C(=O)N[C@@H](CO)C(=O)N[C@@H](CCCCN)C(=O)N[C@@H](CCCNC(=N)N)C(=O)N[C@@H](C)C(=O)N3)NC(=O)[C@H](CCCNC(=N)N)NC(=O)[C@H](CC(C)C)NC(=O)CNC(=O)[C@H](CCC(=O)O)NC2=O [compound 379] | 8.32 | 10 | 9.32 | 6.36 |  |  |  |  | 
6 | C#CC[C@H](N)C(=O)NCCOCCOCCOCCOCCC(=O)NCCCC[C@@H]1NC(=O)[C@@H]2CSSC[C@H](NC(=O)[C@H](Cc3ccc(O)cc3)NC(=O)[C@@H](N)CC#N)C(=O)N[C@@H](CCC(N)=O)C(=O)N[C@@H](CCCCN)C(=O)N[C@@H](Cc3c[nH]c4ccccc34)C(=O)N[C@@H](CCCC)C(=O)N[C@@H](Cc3c[nH]c4ccccc34)C(=O)N[C@@H]([C@@H](C)O)C(=O)N[C@H]3CSSC[C@H](NC(=O)[C@H](CCCNC(=N)N)NC(=O)[C@H](CC(C)C)NC(=O)CNC1=O)C(=O)N[C@@H](CCCCN)C(=O)N[C@@H](CC(C)C)C(=O)N[C@@H](Cc1c[nH]c4ccccc14)C(=O)N[C@H](C(=O)N[C@@H](CCCNC(=N)N)C(=O)N[C@@H](CCCCN)C(=O)N[C@H](C(=O)N[C@H](C(N)=O)[C@@H](C)CC)[C@@H](C)CC)CSSC[C@H](NC(=O)[C@H](C)NC(=O)[C@H](CCCNC(=N)N)NC(=O)[C@H](CCCCN)NC(=O)[C@H](CO)NC(=O)[C@H](CC(=O)O)NC3=O)C(=O)N2 [compound 385] |  |  |  |  | 0 | 8.44 | 0 |  | 
7 | CCCC[C@@H]1NC(=O)[C@H](Cc2c[nH]c3ccccc23)NC(=O)[C@H](CCCCN)NC(=O)[C@H](CCC(N)=O)NC(=O)[C@@H](NC(=O)[C@H](Cc2ccc(O)cc2)NC(=O)[C@@H](N)Cc2cn(CCOCCOCCOCCOCCOCCOCCOCCOCCOCCOCCOCCNC(=O)CSCc3ccccc3)nn2)CSSC[C@@H]2NC(=O)[C@@H]3CSSC[C@@H](C(=O)N[C@@H](CCCNC(=N)N)C(=O)N[C@@H](CCCCN)C(=O)N[C@H](C(=O)N[C@H](C(N)=O)[C@@H](C)CC)[C@@H](C)CC)NC(=O)[C@H](Cc4c[nH]c5ccccc45)NC(=O)[C@H](CC(C)C)NC(=O)[C@H](CCCCN)NC(=O)[C@H](CSSC[C@H](NC(=O)[C@H]([C@@H](C)O)NC(=O)[C@H](Cc4c[nH]c5ccccc45)NC1=O)C(=O)N[C@@H](CC(=O)O)C(=O)N[C@@H](CO)C(=O)N[C@@H](CCCCN)C(=O)N[C@@H](CCCNC(=N)N)C(=O)N[C@@H](C)C(=O)N3)NC(=O)[C@H](CCCNC(=N)N)NC(=O)[C@H](CC(C)C)NC(=O)CNC(=O)[C@H](CCC(=O)O)NC2=O [compound 427] | 7.89 | 9 | 8.85 | 5.70 |  |  |  |  | 
8 | CCCC[C@@H]1NC(=O)[C@H](Cc2c[nH]c3ccccc23)NC(=O)[C@H](CCCCN)NC(=O)[C@H](CCC(N)=O)NC(=O)[C@@H](NC(=O)[C@H](Cc2ccc(O)cc2)NC(=O)[C@@H](N)CC#N)CSSC[C@@H]2NC(=O)[C@@H]3CSSC[C@@H](C(=O)N[C@@H](CCCNC(=N)N)C(=O)N[C@@H](CCCCN)C(=O)N[C@@H](CCC(=O)O)C(=O)N[C@H](C(N)=O)[C@@H](C)CC)NC(=O)[C@H](Cc4c[nH]c5ccccc45)NC(=O)[C@H](CC(C)C)NC(=O)[C@H](CCCCN)NC(=O)[C@H](CSSC[C@H](NC(=O)[C@H]([C@@H](C)O)NC(=O)[C@H](Cc4c[nH]c5ccccc45)NC1=O)C(=O)N[C@@H](CC(=O)O)C(=O)N[C@@H](CO)C(=O)N[C@@H](CCCCN)C(=O)N[C@@H](CCCNC(=N)N)C(=O)N[C@@H](C)C(=O)N3)NC(=O)[C@H](CCCNC(=N)N)NC(=O)[C@H](CC(C)C)NC(=O)CNC(=O)[C@H](Cc1cn(CCCOCCOCCOCCOCCOCCOCCOCCOCCOCCOCCN)nn1)NC2=O [compound 443] | 6.76 |  | 8.25 | 5.88 |  |  |  |  | 
9 | C#CC[C@H](N)C(=O)NCCCC[C@@H]1NC(=O)[C@H](CCCNC(=N)N)NC(=O)[C@H](CCCCN)NC(=O)[C@H](CO)NC(=O)[C@H](CC(=O)O)NC(=O)[C@@H]2CSSC[C@@H]3NC(=O)[C@H](CCCNC(=N)N)NC(=O)[C@H](CC(C)C)NC(=O)CNC(=O)[C@H](CCC(=O)O)NC(=O)[C@H](CSSC[C@H](NC(=O)[C@H](Cc4ccc(O)cc4)NC(=O)[C@@H](N)CC#N)C(=O)N[C@@H](CCC(N)=O)C(=O)N[C@@H](CCCCN)C(=O)N[C@@H](Cc4c[nH]c5ccccc45)C(=O)N[C@@H](CC(C)C)C(=O)N[C@@H](Cc4c[nH]c5ccccc45)C(=O)N[C@@H]([C@@H](C)O)C(=O)N2)NC(=O)[C@H](CSSC[C@@H](C(=O)N[C@@H](CCCNC(=N)N)C(=O)N[C@@H](CCCCN)C(=O)N[C@@H](CCC(=O)O)C(=O)N[C@H](C(N)=O)[C@@H](C)CC)NC(=O)[C@H](Cc2c[nH]c4ccccc24)NC(=O)[C@H](CC(C)C)NC(=O)[C@H](CCCCN)NC3=O)NC1=O [compound 449] |  |  |  |  |  | 8.83 |  | 6.78 | 5.81
